We go through 39 compounds from the supplement of paper PMC12137928.

SMILES strings stand for the structures. Where a name gives a salt, the structure may show the parent alone.

In this assay the test system is HCT116. Conditions: 72 h. In short, it runs like this:
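For IC50 and maximal efficacy, four-parameter Hill fits were used. Input values were CellTiter-Glo luminescence from HCT116 cells seeded at 250 per well in 1536-well plates, normalized to vehicle (0%) and positive control (-100%). Pattern correction followed normalization.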

`CCC(=O)O[C@@](Cc1ccccc1)(c1ccccc1)[C@@H](C)CN(C)C` [Levopropoxyphene napsylate]: the IC50 cell viability was > 45.8 µM (ICRF193 0 nM) and > 45.8 µM (ICRF193 200 nM).

Turning to `CO[C@@]1(NC(=O)Cc2cccs2)C(=O)N2C(C(=O)O)=C(COC(N)=O)CS[C@@H]21` [Cefoxitin], the IC50 cell viability runs as follows: (ICRF193 0 nM) > 45.8 µM; (ICRF193 200 nM) > 45.8 µM.

Consider `CCOc1cc(CC(=O)N[C@@H](CC(C)C)c2ccccc2N2CCCCC2)ccc1C(=O)O` [Repaglinide], for which the IC50 cell viability (ICRF193 0 nM) is > 45.8 µM and the IC50 cell viability (ICRF193 200 nM) is > 45.8 µM.

In the case of `NCCCC(O)(P(=O)(O)O)P(=O)(O)O` [ALENDRONATE SODIUM], the IC50 cell viability was > 45.8 µM (ICRF193 0 nM) and > 45.8 µM (ICRF193 200 nM).

As for `N[C@@H](Cc1ccc(N(CCCl)CCCl)cc1)C(=O)O` [Melphalan], the IC50 cell viability is, setting by setting: (ICRF193 0 nM) > 45.8 µM; (ICRF193 200 nM) > 45.8 µM.

As to `NCCS(=O)(=O)O` [Taurine], the IC50 cell viability was > 45.8 µM (ICRF193 0 nM) and > 45.8 µM (ICRF193 200 nM).

As to `CN1CCN(c2cc3c(cc2F)c(=O)c(C(=O)O)cn3-c2ccc(F)cc2)CC1` [Difloxacin hydrochloride], the IC50 cell viability (ICRF193 0 nM) is > 45.8 µM and the IC50 cell viability (ICRF193 200 nM) was > 45.8 µM.

For `CCOC(=O)c1c(N)sc2c1CCN(Cc1ccccc1)C2` [Tinoridine], the IC50 cell viability by setting is: (ICRF193 0 nM) > 45.8 µM; (ICRF193 200 nM) > 45.8 µM.

With `O=C([O-])CC(O)C(=O)[O-].[Na+].[Na+]` (stereo not drawn) [Disodium 2-hydroxybutanedioate], the IC50 cell viability reads like this: (ICRF193 0 nM) > 45.8 µM; (ICRF193 200 nM) > 45.8 µM.

Turning to `CCOC(=O)[C@H](CCc1ccccc1)N[C@H]1CS[C@H](c2cccs2)CN(CC(=O)O)C1=O` [Temocapril hydrochloride], the IC50 cell viability by setting is: (ICRF193 0 nM) > 45.8 µM; (ICRF193 200 nM) > 45.8 µM.

For the compound `O=[N+]([O-])c1cc(I)c(O)c(I)c1` [2,6-DIIODO-4-NITROPHENOL], the IC50 cell viability runs as follows: (ICRF193 0 nM) > 45.8 µM; (ICRF193 200 nM) > 45.8 µM.

Regarding `NC[C@H]1CC[C@H](C(=O)Oc2ccc(CCC(=O)O)cc2)CC1` [Cetraxate hydrochloride], the IC50 cell viability (ICRF193 0 nM) is > 45.8 µM and the IC50 cell viability (ICRF193 200 nM) was > 45.8 µM.

Turning to `O=[N+]([O-])C(Br)(CO)CO` [2-Bromo-2-nitro-1,3-propanediol], the IC50 cell viability is, setting by setting: (ICRF193 0 nM) > 45.8 µM; (ICRF193 200 nM) > 45.8 µM.

Turning to `O=S(=O)(O)CCS` [Sodium 2-mercaptoethanesulfonate], the IC50 cell viability is > 45.8 µM (ICRF193 0 nM) and > 45.8 µM (ICRF193 200 nM).

Turning to `CC(C)(C)NC[C@H](O)COc1cccc2c1CCCC2=O` [Levobunolol hydrochloride], the IC50 cell viability by setting is: (ICRF193 0 nM) > 45.8 µM; (ICRF193 200 nM) > 45.8 µM.

For `COc1ccccc1OC(=O)Oc1ccccc1OC` [Guaiacol carbonate], the IC50 cell viability runs as follows: (ICRF193 0 nM) > 45.8 µM; (ICRF193 200 nM) > 45.8 µM.

As for `CCCCC[C@H](O)/C=C/[C@@H]1[C@H]2C/C(=C/CCCC(=O)O)O[C@H]2C[C@H]1O` [Epoprostenol sodium], the IC50 cell viability is, setting by setting: (ICRF193 0 nM) > 45.8 µM; (ICRF193 200 nM) > 45.8 µM.

In the case of `Cc1oc(=O)oc1COC(=O)N1CC[C@@H](N2CC/C(=C\C3=C(C(=O)O)N4C(=O)[C@@H](NC(=O)/C(=N/O)c5nsc(N)n5)[C@H]4SC3)C2=O)C1` [CEFTOBIPROLE MEDOCARIL SODIUM], the IC50 cell viability runs as follows: (ICRF193 0 nM) > 45.8 µM; (ICRF193 200 nM) > 45.8 µM.

Turning to `C#CC(O)(/C=C/Cl)CC` (stereo not drawn) [Ethchlorvynol], the IC50 cell viability is, setting by setting: (ICRF193 0 nM) > 45.8 µM; (ICRF193 200 nM) > 45.8 µM.

On to `NC[C@@H]1CC[C@@H](N)[C@@H](O[C@H]2[C@H](O)[C@@H](O[C@H]3O[C@H](CO)[C@@H](O)[C@H](N)[C@H]3O)[C@H](N)C[C@@H]2N)O1` [DIBEKACIN], for which the IC50 cell viability (ICRF193 0 nM) is > 45.8 µM and the IC50 cell viability (ICRF193 200 nM) was > 45.8 µM.

Turning to `Cc1cnc(NC(=O)C2=C(O)c3ccccc3S(=O)(=O)N2C)s1` [MELOXICAM SODIUM], the IC50 cell viability was > 45.8 µM (ICRF193 0 nM) and > 45.8 µM (ICRF193 200 nM).

As for `CCCCOC(=O)c1ccc(O)cc1` [Butylparaben], the IC50 cell viability was > 45.8 µM (ICRF193 0 nM) and > 45.8 µM (ICRF193 200 nM).

Regarding `CC(=O)O[C@H]1C[C@@]2(C)[C@@H](C[C@@H](O)[C@H]3[C@@]4(C)CC[C@@H](O)[C@@H](C)[C@@H]4CC[C@@]32C)/C1=C(\CCC=C(C)C)C(=O)O` [Fusidic Acid (sodium salt)], the IC50 cell viability reads like this: (ICRF193 0 nM) > 45.8 µM; (ICRF193 200 nM) > 45.8 µM.

Consider `CC(C)N(CCC(C(N)=O)(c1ccccc1)c1ccccn1)C(C)C` (stereo not drawn) [Disopyramide], for which the IC50 cell viability reads like this: (ICRF193 0 nM) > 45.8 µM; (ICRF193 200 nM) > 45.8 µM.

With `CCC(=O)Oc1ccc2c(c1)CCC1C2CCC2(C)C(OC(=O)CC)CCC12` (stereo not drawn) [17-BETA-ESTRADIOL 3,17-DIPROPIONATE], the IC50 cell viability was > 45.8 µM (ICRF193 0 nM) and > 45.8 µM (ICRF193 200 nM).

With `C#C[C@]1(O)C=C[C@H]2[C@@H]3CCC4=CC(=O)CC[C@@H]4[C@H]3CC[C@@]21CC` [Gestodene], the IC50 cell viability was > 45.8 µM (ICRF193 0 nM) and > 45.8 µM (ICRF193 200 nM).

In the case of `O=C(O)c1cc(=O)[nH]c(=O)[nH]1` [Orotic acid], the IC50 cell viability is, setting by setting: (ICRF193 0 nM) > 45.8 µM; (ICRF193 200 nM) > 45.8 µM.

As for `Cc1ccc(Cl)c(OCC(O)CNC(C)(C)C)c1` (stereo not drawn) [Bupranolol], the IC50 cell viability reads like this: (ICRF193 0 nM) > 45.8 µM; (ICRF193 200 nM) > 45.8 µM.

For `NC(=O)c1ncn([C@@H]2O[C@H](CO)[C@@H](O)[C@H]2O)n1` [Ribavirin], the IC50 cell viability (ICRF193 0 nM) was > 45.8 µM and the IC50 cell viability (ICRF193 200 nM) was > 45.8 µM.

Turning to `O=C(O)CSc1nnc(Br)n1-c1ccc(C2CC2)c2ccccc12` [Lesinurad (sodium)], the IC50 cell viability runs as follows: (ICRF193 0 nM) > 45.8 µM; (ICRF193 200 nM) > 45.8 µM.

As to `C[N@+]1(CC2CC2)CC[C@]23c4c5ccc(O)c4O[C@H]2C(=O)CC[C@@]3(O)[C@H]1C5` [Methylnaltrexone Bromide], the IC50 cell viability was > 45.8 µM (ICRF193 0 nM) and > 45.8 µM (ICRF193 200 nM).

Consider `CO[C@@]1(NC(=O)C(C(=O)O)c2ccc(O)cc2)C(=O)N2C(C(=O)O)=C(CSc3nnnn3C)CO[C@@H]21` (stereo partly drawn) [Moxalactam disodium], for which the IC50 cell viability is, setting by setting: (ICRF193 0 nM) > 45.8 µM; (ICRF193 200 nM) > 45.8 µM.

As to `C[C@]12C=CC(=O)C=C1CC[C@H]1[C@@H]3C[C@@H](O)[C@](O)(C(=O)CO)[C@@]3(C)C[C@H](O)[C@@]12F` [Triamcinolone], the IC50 cell viability is, setting by setting: (ICRF193 0 nM) > 45.8 µM; (ICRF193 200 nM) > 45.8 µM.

Consider `NCCS` [Cysteamine hydrochloride], for which the IC50 cell viability is, setting by setting: (ICRF193 0 nM) > 45.8 µM; (ICRF193 200 nM) > 45.8 µM.

As to `CC(C1=C(CCN(C)C)Cc2ccccc21)c1ccccn1` (stereo in doubt) [(S)-(+)-Dimethindene maleate], the IC50 cell viability (ICRF193 0 nM) was > 45.8 µM and the IC50 cell viability (ICRF193 200 nM) is > 45.8 µM.

`C[C@H](O)C(=O)Nc1c(I)c(C(=O)NC(CO)CO)c(I)c(C(=O)NC(CO)CO)c1I` [Iopamidol]: the IC50 cell viability reads like this: (ICRF193 0 nM) > 45.8 µM; (ICRF193 200 nM) > 45.8 µM.

In the case of `Cc1noc(NS(=O)(=O)c2ccc(N)cc2)c1C` [Sulfisoxazole], the IC50 cell viability reads like this: (ICRF193 0 nM) > 45.8 µM; (ICRF193 200 nM) > 45.8 µM.

For `O=c1n(Cl)c(=O)n(Cl)c(=O)n1Cl` [Symclosene], the IC50 cell viability is > 45.8 µM (ICRF193 0 nM) and > 45.8 µM (ICRF193 200 nM).

With `C[C@@H](O)[C@H]1C(=O)N2C(C(=O)O)=C(SCCNC=N)C[C@H]12` [Imipenem], the IC50 cell viability (ICRF193 0 nM) was > 45.8 µM and the IC50 cell viability (ICRF193 200 nM) is > 45.8 µM.
